Measurements published in patent publication US9801388B2, “Method for a pesticide having an insecticide, acaricide and nematicide action based on isoquinoline alkaloids and flavonoids” (PROMOTORA TECNICA INDUSTRIAL, S.A. DE C.V., priority 2011, dated 2017).

Experiments:
[1] = tested on: insects of the genus Bemisia; assay: In vitro (laboratory) evaluation of effectiveness against Bemisia; format: in vivo; conditions: dose 2 mL/L (recommended by the manufacturer), 24 hours after application
Description: In the laboratory assay both products were diluted to 5 mL of the formulation in 1 L of distilled water, and they were applied against insects of the genus Bemisia. To compare the effectiveness of the formulation distilled water was also applied as an absolute control and bifenthrin ([1a,3a-(Z)]-(±)-(2methyl[1,1′-biphenyl]-3-il)methyl-3-(2-cloro-3,3,3-trifluorine-1-propenyl-2,2-dimethyl cyclopropanecarboxylate) was applied as a commercial control. The application of the formulation was performed in laboratory conditions using devices to keep the specimens under observation. The effectiveness evaluation was carried out 24 hours after the application.
The experimental unit consisted of four devices that were kept at 26 (±2° C.). Three repetitions of each evaluation were performed.
In Table VI, the effectiveness observed in insects of the genus Bemisia after 24 hours of observation with each of the treatments is detailed. The dose of the commercial control (Bifenthrin) was that recommended by the manufacturer.

[2] = tested on: nematodes of the genus Meloidogyne; assay: In vitro evaluation of effectiveness against Meloidogyne nematodes; format: in vivo; conditions: dilution 1:200, after 48 hours
Description: The nematicide capacity of formulation 2 was evaluated; a satisfactory percentage after 48 hours was obtained.

[3] = tested on: Diaphorina sp nymphs; assay: Field evaluation of effectiveness against Diaphorina sp nymphs in Citrus sp. crop; format: in vivo; conditions: dose 5 mL/L
Description: (§1) In accordance with the effectiveness percentages mentioned above, both of the developed products show a significant effectiveness to control insects belonging to the genus Bemisia. The evaluation was carried out four days after the application. The formulations were also applied to observe their effectiveness in the crop of Citrus sp. in controlling two pest species: Diaphorina sp. (adult and nymph) and mites of the genus Polyphagotarsonemus.
(§2) Table III describes the effectiveness of the above mentioned treatments in controlling Diaphorina sp. nymphs.

[4] = tested on: Diaphorina sp adults; assay: Field evaluation of effectiveness against Diaphorina sp adults in Citrus sp. crop; format: in vivo; conditions: dose 5 mL/L
Description: as §1, §2

[5] = tested on: humans; conditions: toxic for humans; cited from earlier work
[6] = tested on: mammals; conditions: toxic for mammals; cited from earlier work
[7] = tested on: larvae of genus Plutella; assay: Field evaluation of effectiveness against Plutella larvae in Brassica oleracea crop; format: in vivo; conditions: dose 100 mL/Ha, fourth day after application
Description: With the Brassica oleracea crop assessments of the control of larvae of the Plutella genus was performed, the results of this assessment are shown in Table V. The assessment was carried out the fourth day after the application.

Cc1c(COC(=O)[C@@H]2[C@H](/C=C(\Cl)C(F)(F)F)C2(C)C)cccc1-c1ccccc1 (racemic) [Bifenthrin, [1a,3a-(Z)]-(±)-(2methyl[1,1′-biphenyl]-3-il)methyl-3-(2-cloro-3,3,3-trifluorine-1-propenyl-2,2-dimethyl cyclopropanecarboxylate]
Effectiveness % [1]: 97.18%

CNC(=O)Oc1cccc2c1OC(C)(C)C2 [Carbofuran]
Effectiveness % [2]: 100%

CNC(=O)CSP(=S)(OC)OC [Dimethoate]
Effectiveness % [3]: 100%
Effectiveness % [4]: 100%

C=C(C)[C@H]1Cc2c(ccc3c2O[C@@H]2COc4cc(OC)c(OC)cc4[C@@H]2C3=O)O1 [Rotenone]
DL50 [5]: 132 mg/kg

C/C=C(/C)C(=O)O[C@H]1CC[C@@]2(C)[C@@H]3CC[C@H]4[C@]5(O)C[C@H](O)[C@@]6(O)[C@@H](CN7C[C@@H](C)CC[C@H]7[C@@]6(C)O)[C@]5(O)C[C@@]42O[C@]13O [cevadine]
DL50 [6]: 13 mg/kg

COc1ccc(C(=O)O[C@H]2CC[C@@]3(C)[C@@H]4CC[C@H]5[C@]6(O)C[C@H](O)[C@@]7(O)[C@@H](CN8C[C@@H](C)CC[C@H]8[C@@]7(C)O)[C@]6(O)C[C@@]53O[C@]24O)cc1OC [veratridine]
DL50 [6]: 13 mg/kg

Spinosad
Effectiveness % [7]: 52.8%
